# From ChEMBL document CHEMBL1201862, “PubChem BioAssay data set” (2004)
#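 Dose response: 5 concentrations. Exposure: 48 h. Format: 96-well plates. Endpoint: linear interpolation; highest concentration if not reached. Abbreviation: GI50, concentration required for 50% inhibition of growth.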 Active and inactive are the calls of the source. Cut-off read from the data, not from the text of the source: active = GI50 up to about 1.1 µM and inactive = higher.
# Tests used:
# Assay in all cases: DTP human tumour cell line panel, 48 h
# [1] = tested on: UACC-62
# [2] = tested on: MCF7
# [3] = tested on: HCT-15
# [4] = tested on: UACC-257
# [5] = tested on: TK-10
# [6] = tested on: HT-29
# [7] = tested on: OVCAR-5
# [8] = tested on: SK-MEL-2
# [9] = tested on: HCT-116
# [10] = tested on: SF-539
# [11] = tested on: A498
# [12] = tested on: LOX IMVI
# [13] = tested on: Hs-578T
# [14] = tested on: HOP-92
# [15] = tested on: PC-3
# [16] = tested on: SNB-19
# [17] = tested on: OVCAR-3
# [18] = tested on: HCC 2998
# [19] = tested on: SN12C
# [20] = tested on: HOP-62
# [21] = tested on: 786-0
# [22] = tested on: ACHN
# [23] = tested on: SR
# [24] = tested on: NCI-H522
# [25] = tested on: CAKI-1
# [26] = tested on: EKVX
# [27] = tested on: MOLT-4
# [28] = tested on: DU-145
# [29] = tested on: SF-268
# [30] = tested on: U-251
# [31] = tested on: NCI/ADR-RES
# [32] = tested on: M14
# [33] = tested on: IGROV-1
# [34] = tested on: UO-31
# [35] = tested on: BT-549
# [36] = tested on: SK-MEL-5
# [37] = tested on: RPMI-8226
# [38] = tested on: OVCAR-8
# [39] = tested on: HL-60
# [40] = tested on: SW-620
# [41] = tested on: NCI-H460
# [42] = tested on: MDA-MB-435
# [43] = tested on: SF-295
# [44] = tested on: COLO 205
# [45] = tested on: MDA-N
# [46] = tested on: Malme-3M
# [47] = tested on: SK-MEL-28
# [48] = tested on: KM12
# [49] = tested on: MDA-MB-231
# [50] = tested on: OVCAR-4
# [51] = tested on: NCI-H23
# [52] = tested on: CCRF-CEM
# [53] = tested on: A549
# [54] = tested on: T47D
# [55] = tested on: SNB-75
# [56] = tested on: SK-OV-3
# [57] = tested on: K562
# [58] = tested on: NCI-H226
structure (smiles),measurement,setting,value
CCOC(=O)c1nc2ccccc2nc1Nc1ccc(C(=O)OC)s1,GI50,[1],> 100 µM (inactive)
same,GI50,[2],> 100 µM (inactive)
same,GI50,[3],> 100 µM
same,GI50,[4],> 100 µM (inactive)
same,GI50,[5],> 100 µM (inactive)
same,GI50,[6],> 100 µM (inactive)
same,GI50,[7],> 100 µM (inactive)
same,GI50,[8],> 100 µM (inactive)
same,GI50,[9],> 100 µM (inactive)
same,GI50,[10],> 100 µM (inactive)
same,GI50,[11],> 100 µM (inactive)
same,GI50,[12],> 100 µM (inactive)
same,GI50,[13],> 100 µM (inactive)
same,GI50,[14],> 100 µM (inactive)
same,GI50,[15],> 100 µM (inactive)
same,GI50,[16],> 100 µM (inactive)
same,GI50,[17],> 100 µM (inactive)
same,GI50,[18],> 100 µM (inactive)
same,GI50,[19],> 100 µM (inactive)
same,GI50,[20],> 100 µM (inactive)
same,GI50,[21],> 100 µM (inactive)
same,GI50,[22],> 100 µM (inactive)
same,GI50,[23],> 100 µM (inactive)
same,GI50,[24],47.4 µM (inactive)
same,GI50,[25],> 100 µM (inactive)
same,GI50,[26],> 100 µM (inactive)
same,GI50,[27],> 100 µM (inactive)
same,GI50,[28],> 100 µM (inactive)
same,GI50,[29],> 100 µM (inactive)
same,GI50,[30],> 100 µM (inactive)
same,GI50,[31],> 100 µM (inactive)
same,GI50,[32],> 100 µM (inactive)
same,GI50,[33],> 100 µM (inactive)
same,GI50,[34],> 100 µM (inactive)
same,GI50,[35],> 100 µM (inactive)
same,GI50,[36],> 100 µM (inactive)
same,GI50,[37],> 100 µM (inactive)
same,GI50,[38],> 100 µM (inactive)
same,GI50,[39],> 100 µM (inactive)
same,GI50,[40],> 100 µM (inactive)
same,GI50,[41],> 100 µM (inactive)
same,GI50,[42],> 100 µM (inactive)
same,GI50,[43],> 100 µM (inactive)
same,GI50,[44],> 100 µM (inactive)
same,GI50,[45],> 100 µM (inactive)
same,GI50,[46],18.5 µM (inactive)
same,GI50,[47],> 100 µM (inactive)
same,GI50,[48],> 100 µM (inactive)
same,GI50,[49],> 100 µM (inactive)
same,GI50,[50],> 100 µM (inactive)
same,GI50,[51],> 100 µM (inactive)
same,GI50,[52],> 100 µM (inactive)
same,GI50,[53],> 100 µM (inactive)
same,GI50,[54],> 100 µM (inactive)
same,GI50,[55],> 100 µM (inactive)
OC1(c2ccc(Cl)cc2)c2ccccc2C2=NCc3ccccc3CN21 (stereo not drawn),GI50,[1],13.6 µM (inactive)
same,GI50,[2],4.8 µM (inactive)
same,GI50,[3],7.14 µM
same,GI50,[4],14.3 µM (inactive)
same,GI50,[5],14.6 µM (inactive)
same,GI50,[6],14.7 µM (inactive)
same,GI50,[7],13.1 µM (inactive)
same,GI50,[8],1.2 µM (inactive)
same,GI50,[9],6.62 µM (inactive)
same,GI50,[10],7.13 µM (inactive)
same,GI50,[11],13.6 µM (inactive)
same,GI50,[12],9.2 µM (inactive)
same,GI50,[13],14.9 µM (inactive)
same,GI50,[14],13.1 µM (inactive)
same,GI50,[15],4.74 µM (inactive)
same,GI50,[16],3.51 µM (inactive)
same,GI50,[17],1.7 µM (inactive)
same,GI50,[18],2.18 µM (inactive)
same,GI50,[19],17.5 µM (inactive)
same,GI50,[56],1.22 µM (inactive)
same,GI50,[20],6.47 µM (inactive)
same,GI50,[21],5.45 µM (inactive)
same,GI50,[22],4.45 µM (inactive)
same,GI50,[23],8.53 µM (inactive)
same,GI50,[24],14.1 µM (inactive)
same,GI50,[57],2.68 µM (inactive)
same,GI50,[25],12.3 µM (inactive)
same,GI50,[26],5.48 µM (inactive)
same,GI50,[27],3.37 µM (inactive)
same,GI50,[28],17.9 µM (inactive)
same,GI50,[29],12.4 µM (inactive)
same,GI50,[30],7.24 µM (inactive)
same,GI50,[31],13.1 µM (inactive)
same,GI50,[32],2.96 µM (inactive)
same,GI50,[33],3.75 µM (inactive)
same,GI50,[34],7.98 µM (inactive)
same,GI50,[35],18.6 µM (inactive)
same,GI50,[36],13.2 µM (inactive)
same,GI50,[37],> 21.3 µM (inactive)
same,GI50,[38],9.55 µM (inactive)
same,GI50,[39],4.94 µM (inactive)
same,GI50,[40],2.69 µM (inactive)
same,GI50,[41],11.2 µM (inactive)
same,GI50,[42],7.45 µM (inactive)
same,GI50,[43],15.3 µM (inactive)
same,GI50,[44],4.9 µM (inactive)
same,GI50,[45],12.9 µM (inactive)
same,GI50,[46],13.9 µM (inactive)
same,GI50,[47],2.75 µM (inactive)
same,GI50,[58],5.47 µM (inactive)
same,GI50,[48],4.7 µM (inactive)
same,GI50,[49],16.6 µM (inactive)
same,GI50,[50],12.6 µM (inactive)
same,GI50,[51],6.97 µM (inactive)
same,GI50,[52],7.6 µM (inactive)
same,GI50,[53],4.58 µM (inactive)
same,GI50,[54],23.3 µM (inactive)
same,GI50,[55],6.35 µM (inactive)
